According to patent US20250040554A1, “NEW USES OF PHENMEDIPHAM AND HERBICIDAL COMBINATIONS COMPRISING PHENMEDIPHAM” (BAYER AKTIENGESELLSCHAFT, priority 2021, published 2025):

Legend:
[1] = tested on: EPHHL=Euphorbia heterophylla; test: Weed control field trial EPHHL; assay type: in vivo
Excerpt: (§1) The respective (combinations of) materials were applied to weed plants in the greenhouse or in the field at the respective growth stage indicated hereinafter for the different weed species mentioned below. The respective (combinations of) active ingredients were also applied to corn, cotton and soybean crop plants, and the selectivity (damage) in these crop plants rated (assessed).
(§2) Visual scoring of the damage to the trial plants took place after the time mentioned in the respective Table—indicated in number of Days After Application (DAA). Damage and development of all above-ground parts of the respective plants was recorded. Visual rating was done on a percentage scale in relation to the untreated control (100%=all plants dead; 50%=green plant biomass reduced by 50%, and 0%=no discernible difference=like control plot).
(§3) The trials in the greenhouse were sprayed with an application volume of 300 L/ha with an automated track sprayer. The plots in the field were sprayed with an application volume of 140 L/ha with a hand held spray boom.
wherein • A, B=respective value in percent of active ingredient A at a dose rate of a g/ha, ingredient B at a dose rate of b g/ha • E^C=Expected value according to Colby (S. R. Colby; Weeds 15 (1967), 20-22) in % at a dose rate of a+b, each in g/ha • Δ=Difference (in %) between measured value E and expected value E^C (%) (measured value minus expected value)
The growth stages of the different weed species are indicated according to the BBCH monograph “Growth stages of mono- and dicotyledonous plants”, 2nd edition, 2001, ed. Uwe Meier, Federal Biological Research Centre for Agriculture and Forestry (Biologische Bundesanstalt für Land und Forstwirtschaft).
After the harmful plants had emerged, they were treated, at the respective growth stage indicated, with the respective materials as indicated at a water application rate of 140 L/ha.
After the treatment (21 or 35 days after application of the respective material), the herbicidal activity of respective material was scored visually at the same time by comparing the differently treated plots with the untreated control plots. The score figures of the different plots were averaged.
The dose rates of herbicidal ingredients used in each case are indicated for the respective active ingredient and refer to the amount of active ingredient per hectare (g/ha).
The weed control activity of different (combinations of) herbicidal active ingredients was investigated in field trials for the following weed species: • AMAVI=Amaranthus viridis • IPOAO=Ipomoea aristolochiaefolia • EPHHL=Euphorbia heterophylla • BIDPI=Bidens pilosa • BRADC=Brachiaria decumbens • ELEIN=Eleusine indica • CCHEC=Cenchrus echinatus
The growth stage of AMAVI was BBCH 13, the growth stage of IPOAO was BBCH 15, the growth stage of EPHHL was BBCH 13, the growth stage of BIDPI was BBCH 14, the growth stage of BRADC was BBCH 23, the growth stage of ELEIN was BBCH 11 and the growth stage of CCHEC was BBCH 12 at the time of application of the respective material.
Phenmedipham and Mesotrione were applied at varying application rates (Dose Rate) to the different species of weed plants. The results are shown in Tables 3a to 3e as the % control when assessed 21 and 35 days after application (DAA), respectively.
In all the trials of Tables 3a to 3e Mero® (rapeseed oil methyl ester) was added to the respective spray mixture in an amount corresponding to 1 L/ha for PMP, 1 L/ha for MST, and 2 L/ha for mixtures of PMP+MST.

[2] = tested on: corn (Zea mays subsp. amylacea, ZEAMA); test: Greenhouse selectivity trial, post-emergence, corn; assay type: in vivo; conditions: 8 DAA
Excerpt: as §1, §2, §3
(§4) In greenhouse selectivity trials and trials herbicidal activity trials against weed plants were investigated in post-emergence application of the respective material(s).
(§5) Phenmedipham was applied at varying application rates (Dose Rate) to the crop plants of corn (Zea mays subsp. amylacea, ZEAMA), soybean (Glycine max, GLXMA) and cotton (Gossypium hirsutum, GOSHI) at a BBCH growth stage of the plants of BBCH 13 and the crop safety (crop injury, damage) assessed. The results are shown in Table 1 as the % damage when assessed 8 days after application (8 DAA).
(§6) In all the selectivity trials of Table 1 the adjuvant Mero® (rapeseed oil methyl ester) was added to the respective spray mixture in an amount corresponding to 1 L/ha.

[3] = tested on: soybean (Glycine max, GLXMA); test: Greenhouse selectivity trial, post-emergence, soybean; assay type: in vivo; conditions: 8 DAA
Excerpt: as §1, §2, §3, §4, §5, §6

[4] = tested on: cotton (Gossypium hirsutum, GOSHI); test: Greenhouse selectivity trial, post-emergence, cotton; assay type: in vivo; conditions: 8 DAA
Excerpt: as §1, §2, §3, §4, §5, §6

[5] = tested on: soybean (GLXMA); test: Damage in soybean in the field trials of Tables 4a to 4e; assay type: in vivo, Glycine max; conditions: PMP applied to GLXMA at growth stage BBCH 14, field trials of Tables 4a to 4e, each case
Procedure: In the field trials of Tables 4a to 4e also the damage in soybean was assessed when PMP was applied to GLXMA at growth stage BBCH 14. The damage observed in each case was agronomically acceptable, i.e. below 15%.

`CS(=O)(=O)c1ccc(C(=O)C2C(=O)CCCC2=O)c([N+](=O)[O-])c1` [MST, 2-[4-(methylsulfonyl)-2-nitrobenzoyl]cyclohexane-1,3-dione] was tested, and the “% control EPHHL” value ([1]; 25 g/ha, 21 DAA) was 0%, the “% control EPHHL” value ([1]; 25 g/ha, 35 DAA) was 0% and the “% control EPHHL” value ([1]; 50 g/ha, 21 DAA) was 17%. The “% control EPHHL” value ([1]; 50 g/ha, 35 DAA) was 0%.

With `COC(=O)Nc1cccc(OC(=O)Nc2cccc(C)c2)c1` [PMP, 3-[(methoxyformyl)amino]phenyl (3-methylphenyl)carbamate] the “% damage ZEAMA (corn)” value ([2]; 12.5 g/ha) was 0%, the “% damage ZEAMA (corn)” value ([2]; 25 g/ha) was 0% and the “% damage ZEAMA (corn)” value ([2]; 75 g/ha) was 7%. The “% damage ZEAMA (corn)” value ([2]; 125 g/ha) was 0%, the “% damage ZEAMA (corn)” value ([2]; 200 g/ha) was 15% and the “% damage ZEAMA (corn)” value ([2]; 300 g/ha) was 30%. For the same compound, the “% damage GLXMA (soybean)” value ([3]; 12.5 g/ha) was 2%, the “% damage GLXMA (soybean)” value ([3]; 25 g/ha) was 3% and the “% damage GLXMA (soybean)” value ([3]; 75 g/ha) was 0%. The “% damage GLXMA (soybean)” value ([3]; 125 g/ha) was 5%, the “% damage GLXMA (soybean)” value ([3]; 200 g/ha) was 18% and the “% damage GLXMA (soybean)” value ([3]; 300 g/ha) was 20%. The “% damage GOSHI (cotton)” value ([4]; 12.5 g/ha) was 0%, the “% damage GOSHI (cotton)” value ([4]; 25 g/ha) was 0% and the “% damage GOSHI (cotton)” value ([4]; 75 g/ha) was 3%. For the same compound, the “% damage GOSHI (cotton)” value ([4]; 125 g/ha) was 6%, the “% damage GOSHI (cotton)” value ([4]; 200 g/ha) was 6% and the “% damage GOSHI (cotton)” value ([4]; 300 g/ha) was 14%. For the same compound, the “% control EPHHL” value ([1]; 75 g/ha, 21 DAA) was 0%, the “% control EPHHL” value ([1]; 75 g/ha, 35 DAA) was 0% and the “% control EPHHL” value ([1]; 100 g/ha, 21 DAA) was 0%. For the same compound, the “% control EPHHL” value ([1]; 100 g/ha, 35 DAA) was 0%, the “% control EPHHL” value ([1]; 125 g/ha, 21 DAA) was 0% and the “% control EPHHL” value ([1]; 125 g/ha, 35 DAA) was 0%. The “% control EPHHL” value ([1]; 250 g/ha, 21 DAA) was 0%, the “% control EPHHL” value ([1]; 250 g/ha, 35 DAA) was 0% and the damage in soybean [5] was “below 15%”.
